Results as given in article PMC5651845, “A New Generation of Arachidonic Acid Analogues as Potential Neurological Agent Targeting Cytosolic Phospholipase A2” (Scientific Reports, 2017).

Target: T1, recombinant cPLA2 (Homo sapiens, UniProt P47712)
T1 construct: purchased US Biological P4074-03R
T1 sequence (P47712 1-749): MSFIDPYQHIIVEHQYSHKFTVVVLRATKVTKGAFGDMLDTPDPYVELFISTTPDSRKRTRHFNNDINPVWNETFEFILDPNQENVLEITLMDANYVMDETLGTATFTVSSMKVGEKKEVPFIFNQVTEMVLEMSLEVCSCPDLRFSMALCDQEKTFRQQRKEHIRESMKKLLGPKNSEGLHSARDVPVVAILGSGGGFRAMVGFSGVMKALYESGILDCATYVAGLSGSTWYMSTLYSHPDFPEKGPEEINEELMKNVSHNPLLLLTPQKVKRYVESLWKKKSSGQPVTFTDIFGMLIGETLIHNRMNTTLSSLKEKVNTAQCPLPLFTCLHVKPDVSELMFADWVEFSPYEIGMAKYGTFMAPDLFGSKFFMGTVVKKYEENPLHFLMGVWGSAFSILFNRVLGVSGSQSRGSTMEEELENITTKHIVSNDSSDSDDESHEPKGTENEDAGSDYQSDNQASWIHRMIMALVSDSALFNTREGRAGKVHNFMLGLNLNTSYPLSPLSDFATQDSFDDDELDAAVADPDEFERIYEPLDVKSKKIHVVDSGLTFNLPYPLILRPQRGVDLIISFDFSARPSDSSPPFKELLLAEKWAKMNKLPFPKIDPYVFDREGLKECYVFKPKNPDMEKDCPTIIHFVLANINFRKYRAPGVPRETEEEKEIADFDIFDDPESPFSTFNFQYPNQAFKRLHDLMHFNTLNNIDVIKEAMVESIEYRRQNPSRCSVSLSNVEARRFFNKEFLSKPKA
Test: EnzChek phospholipase A2 fluorogenic assay (% activity) at 10 μM
Type: biochemical
Details: 10 μM compound; for remaining activity at 10 µM: 1 h, room temperature
Experimental: The compounds were evaluated with a fluorogenic PLA2 assay kit (EnzChek® Phospholipase A2 Assay Kit, Catalog No: E10217) at a standard 10 μM concentration. Potential inhibitors were determined by their ability to lower cPLA2 activity to a greater extent than 1a.
The assay was conducted according to the manufacturer’s instruction (E10217, Molecular Probes) with slight modification. Briefly, substrate solution was separately prepared by mixing 5 μL of DOPG, 5 μL of DOPC and 5 μL of substrate respectively in 1.5 mL of 1X phospholipase A2 reaction buffer. The mixture was vortexed vigorously for 3 min before allowing to stand at room temperature for 1 h. 48 μL of 1X phospholipase A2 reaction buffer were added into each well of a 96-wells plate. This was followed by addition of 1 μL of recombinant cPLA2 (P4074-03R, US Biological) and 1 μL of 1 mM of the respective compound dissolved in DMSO. The final concentration of the test compound achieved is 10 μM. The reaction was initiated by adding 50 μL of the substrate solution and incubating at room temperature for 1 h. Fluorescence was measured using a Varioskan plate reader (Thermo Scientific, MA, USA) by exciting at 485 nm, while fluorescence emission was detected at 515 nm. Positive control was performed when 1 μL of test compound was replaced by vehicle DMSO. % activity was expressed as the mean value of duplicate wells from three experiments. % activity was calculated by the following formula1 %activity=fluorescenceoftestedwell−background/fluorescenceofpostivecontrol−background

| Structure (SMILES) | inhibition at 10 µM | remaining activity at 10 µM |
| --- | --- | --- |
| CCCCC/C=C\C/C=C\C/C=C\C/C=C\CCCC(=O)NCCCCCC(=O)OC [20c] | 15.2% | 84.8 ± 1% |
| CCCCC/C=C\C/C=C\C/C=C\C/C=C\CCCC(N)=O [1m, (5Z,8Z,11Z,14Z)-icosa-5,8,11,14-tetraenamide] | 39.3% | 60.7 ± 1.9% |
| CCCCC/C=C\C/C=C\C/C=C\C/C=C\CCCC(=O)Nc1ccc(C(N)=O)cc1 [2l] | 32.6% | 67.4 ± 5.7% |
| CCCCC/C=C\C/C=C\C/C=C\C/C=C\CCCC(=O)Nc1ccc(C(=O)O)cc1 [2n] | 66.7% | 33.3 ± 0.9% |
| CCCCC/C=C\C/C=C\C/C=C\C/C=C\CCCC(=O)C(F)(F)Cl [1n] | 50.8% | 49.2 ± 4.5% |
| CCCCC/C=C\C/C=C\C/C=C\C/C=C\CCCC(=O)Nc1cccc(C(N)=O)c1 [2m] | 42.5% | 57.5 ± 1.4% |
| CCCCC/C=C\C/C=C\C/C=C\C/C=C\CCCC(=O)Nc1cccc(S(N)(=O)=O)c1 [2p, (5Z,8Z,11Z,14Z)-N-(3-sulfamoylphenyl)icosa-5,8,11,14-tetraenamide] | 46.1% | 53.9 ± 2.7% |
| CCCCC/C=C\C/C=C\C/C=C\C/C=C\CCCC(=O)NCc1ccc(C(=O)O)cc1 [2e] | 74.2% | 25.8 ± 0.1% |
| CCCCC/C=C\C/C=C\C/C=C\C/C=C\CCCCCC(=O)NCCCCC(=O)O [2k] | 62.3% | 37.7 ± 1.5% |
| CCCCC/C=C\C/C=C\C/C=C\C/C=C\CCCC(=O)Nc1ccccc1C(=O)O [2o] | 34.5% | 65.5 ± 4% |
| CCCCCCCC/C=C\C/C=C\C/C=C\C/C=C\CCCC(=O)C(F)(F)F [1c] | 55% | 45 ± 3.5% |
| CCCCC/C=C\C/C=C\C/C=C\C/C=C\CCCC(=O)Nc1cccc(C(=O)O)c1 [2d] | 86.8% | 13.2 ± 1.2% |
| CCCCC/C=C\C/C=C\C/C=C\C/C=C\CCCC(=O)NCCCCCC(=O)O [2c] | 59.1% | 40.9 ± 1.1% |
| CCCCC/C=C\C/C=C\C/C=C\C/C=C\CCCC(=O)C(F)F [1o] | 59.8% | 40.2 ± 0.5% |
| CCC/C=C\C/C=C\C/C=C\C/C=C\CCCCC(=O)NCCCCC(=O)O [2h] | 56.4% | 43.6 ± 0.2% |
| CCCCC/C=C\C/C=C\C/C=C\C/C=C\CCCC(=O)NCc1cccc(C(=O)O)c1 [2f] | 64.4% | 35.6 ± 2.1% |
| CCCCCC/C=C\C/C=C\C/C=C\C/C=C\CCC(=O)C(F)(F)F [1e] | 59.5% | 40.5 ± 3.6% |
| CCC/C=C\C/C=C\C/C=C\C/C=C\CCCC(=O)C(F)(F)F [1b] | 63% | 37 ± 3.9% |
| CCCCC/C=C\C/C=C\C/C=C\C/C=C\CCCC(=O)NCCCC(=O)O [2a] | 60.3% | 39.7 ± 2.6% |
| O=C(CCC/C=C\C/C=C\C/C=C\C/C=C\c1ccccc1)C(F)(F)F [1d] | 68.2% | 31.8 ± 2% |
| CCC/C=C\C/C=C\C/C=C\C/C=C\CCCCC(=O)Nc1cccc(C(=O)O)c1 [2j] | 83.5% | 16.5 ± 1.2% |
| CCCCC/C=C\C/C=C\C/C=C\C/C=C\CCCC(=O)NCCCCC(=O)O [2b] | 73.3% | 26.7 ± 0.1% |
